“And” between values parts separate entries of the source, which are not always exact repeats. Equal entries are not always repeated.
Columns and labels:
[1] = system: sleep-deprived healthy volunteers; assay: Maintenance of wakefulness test (MWT) in sleep-deprived healthy volunteers; format: in vivo, human; settings: for Total Sleep Time LS Mean / Total Sleep Time LS Mean Difference vs Placebo Estimate / Total Wake Time LS Mean / Total Wake Time LS Mean Difference vs Placebo Estimate: M: Modafinil 300 mg; for Duration Total Microsleeps (MWT), LS Mean / Duration Total Microsleeps (MWT), LS Mean Difference vs placebo / Latency to Sleep Onset on MWT, LS Mean / Latency to Sleep Onset on MWT, LS Mean Difference vs placebo / Stage N1 Duration (MWT), LS Mean / Stage N1 Duration (MWT), LS Mean Difference vs placebo / Stage N2 Duration (MWT), LS Mean / Stage N2 Duration (MWT), LS Mean Difference vs placebo / Total Microsleeps (MWT), LS Mean / Total Microsleeps (MWT), LS Mean Difference vs placebo: Modafinil 300 mg (M)
Method: The primary objective of this study was to determine the effect of Compound A (methyl (2R,3S)-3-((methylsulfonyl)amino)-2-(((cis-4-phenylcyclohexyl)oxy)methyl)piperidine-1-carboxylate), 44 mg (low dose [LD]) and 112 mg (high dose [HD]), after a single IV dose (compared to placebo) on promoting wakefulness as measured by sleep latency on the MWT (performed at approximately 2, 4, 6, and 8 hours post-dosing starting at approximately 1:00 AM and then at approximate times of 3:00, 5:00, and 7:00 AM) in sleep-deprived healthy volunteers.
This was a phase 1b, single-center, randomized, double-blind, double-dummy, placebo- and active-controlled, 4-period Williams design crossover study to evaluate the PK, PD, and safety of Compound A in sleep-deprived healthy volunteers. Compound A was administered as a 9-hour IV infusion.
Healthy adult male subjects aged 18 to 40 years, inclusive, who satisfied the inclusion and exclusion criteria were enrolled in the trial. On Day 1 of treatment period 1, eligible subjects were equally randomized to 4 treatment sequence groups (sequence 1 to 4) which defined the order of administration for Compound A LD, Compound A HD (both delivered as a 9-hour IV infusion), modafinil 300 mg, and placebo.
(§1) During the day before dosing on Day 1, participants were administered the KSS at scheduled timepoints. A practice MWT session was performed on Day 1 treatment period 1 (only once during the entire study) to familiarize subjects with the procedures. Study drug was administered in the clinic in the evening on Day 1 of each treatment period. Subjects underwent the MWT and KSS at specified timepoints after the start of the infusion. Subjects were required to stay awake between the MWT tests. Following completion of the IV infusion on Day 2, subjects underwent an additional MWT test. When the final MWT test and cognitive testing were completed, subjects were allowed to sleep (recovery sleep) for approximately 6 hours. PSG recording was collected during this time. Subjects were discharged from the unit after completion on Day 2 with continuing actigraphy upon discharge (to begin on Day −6 before the next treatment period). The interval between each subsequent treatment period was at least 7 days to ensure that the subject's circadian rhythm had returned to a normal cycle. Subject's vital signs, including BP, were monitored during the dosing and testing period. Blood samples for determination of Compound A plasma concentrations were collected at specified timepoints on Days 1 and 2 of each treatment period. Subjects completed the Columbia-Suicide Severity Rating Scale (C-SSRS) during screening, before study drug administration, and before discharge on Day 2 of each treatment period.
Primary endpoint: Latency for each MWT, defined as time to sleep onset.

[2] = system: sleep-deprived healthy volunteers; assay: Safety/tolerability of a single dose in sleep-deprived healthy adults; format: in vivo, human; settings: Modafinil 300 mg; moderate intensity
Method: as §1
Safety endpoints: adverse events (AEs), physical examinations, vital signs, 12-lead electrocardiograms (ECGs), clinical laboratory evaluations (hematology, blood chemistry, and urinalysis), drug-liking visual analogue scale, and Profile of Mood States.

[3] = Average Overall, MWT during infusion
[4] = Modafinil 300 mg, after the end of infusion (1 hour post end of infusion)

## NC(=O)C[S+]([O-])C(c1ccccc1)c1ccccc1 (stereo not drawn) [Modafinil, modafinil, reference compound]
[1]; 2 HOURS POST INFUSION START
  Total Sleep Time LS Mean: 0.88 min
  Total Sleep Time LS Mean Difference vs Placebo Estimate: -1.85 min
  Total Wake Time LS Mean: 34.87 min
  Total Wake Time LS Mean Difference vs Placebo Estimate: 17.15 min
[1]; 4 HOURS POST INFUSION START
  Total Sleep Time LS Mean: 0.96 min
  Total Sleep Time LS Mean Difference vs Placebo Estimate: -2.19 min
  Total Wake Time LS Mean: 36.45 min
  Total Wake Time LS Mean Difference vs Placebo Estimate: 26.40 min
[1]; 6 HOURS POST INFUSION START
  Total Sleep Time LS Mean: 1.25 min
  Total Sleep Time LS Mean Difference vs Placebo Estimate: -0.98 min
  Total Wake Time LS Mean: 33.11 min
  Total Wake Time LS Mean Difference vs Placebo Estimate: 26.69 min
[1]; 8 HOURS POST INFUSION START
  Total Sleep Time LS Mean: 2.35 min
  Total Sleep Time LS Mean Difference vs Placebo Estimate: -0.57 min
  Total Wake Time LS Mean: 22.32 min
  Total Wake Time LS Mean Difference vs Placebo Estimate: 18.67 min
[1]; [3]
  Total Sleep Time LS Mean: 1.36 min
  Total Sleep Time LS Mean Difference vs Placebo Estimate: -1.40 min
  Total Wake Time LS Mean: 31.69 min
  Total Wake Time LS Mean Difference vs Placebo Estimate: 22.23 min
[1]; Modafinil 300 mg
  Average total wake time (MWT), LS mean difference vs placebo: 22.23 min
  Total sleep time (MWT), LS mean difference vs placebo: -1.40 min
[1]; 2 hours post infusion start
  Duration Total Microsleeps (MWT), LS Mean: 5.75 s
  Duration Total Microsleeps (MWT), LS Mean Difference vs placebo: -3.05 s
  Latency to Sleep Onset on MWT, LS Mean: 35.57 min
  Latency to Sleep Onset on MWT, LS Mean Difference vs placebo: 19.89 min
  Stage N1 Duration (MWT), LS Mean: 0.47 min
  Stage N1 Duration (MWT), LS Mean Difference vs placebo: -0.68 min
  Stage N2 Duration (MWT), LS Mean: 0.36 min
  Stage N2 Duration (MWT), LS Mean Difference vs placebo: -0.49 min
  Total Microsleeps (MWT), LS Mean: 1.06
  Total Microsleeps (MWT), LS Mean Difference vs placebo: −0.74
[1]; 4 hours post infusion start
  Duration Total Microsleeps (MWT), LS Mean: 7.91 s
  Duration Total Microsleeps (MWT), LS Mean Difference vs placebo: -4.39 s
  Latency to Sleep Onset on MWT, LS Mean: 35.60 min
  Latency to Sleep Onset on MWT, LS Mean Difference vs placebo: 26.50 min
  Stage N1 Duration (MWT), LS Mean: 0.68 min
  Stage N1 Duration (MWT), LS Mean Difference vs placebo: -0.97 min
  Stage N2 Duration (MWT), LS Mean: 0.20 min
  Stage N2 Duration (MWT), LS Mean Difference vs placebo: -0.95 min
  Total Microsleeps (MWT), LS Mean: 1.27
  Total Microsleeps (MWT), LS Mean Difference vs placebo: −1.08
[1]; 6 hours post infusion start
  Duration Total Microsleeps (MWT), LS Mean: 9.70 s
  Duration Total Microsleeps (MWT), LS Mean Difference vs placebo: 2.30 s
  Latency to Sleep Onset on MWT, LS Mean: 31.89 min
  Latency to Sleep Onset on MWT, LS Mean Difference vs placebo: 25.74 min
  Stage N1 Duration (MWT), LS Mean: 0.84 min
  Stage N1 Duration (MWT), LS Mean Difference vs placebo: -0.31 min
  Stage N2 Duration (MWT), LS Mean: 0.20 min
  Stage N2 Duration (MWT), LS Mean Difference vs placebo: -0.30 min
  Total Microsleeps (MWT), LS Mean: 1.85
  Total Microsleeps (MWT), LS Mean Difference vs placebo: 0.60
[1]; 8 hours post infusion start
  Duration Total Microsleeps (MWT), LS Mean: 12.64 s
  Duration Total Microsleeps (MWT), LS Mean Difference vs placebo: 4.84 s
  Latency to Sleep Onset on MWT, LS Mean: 20.44 min
  Latency to Sleep Onset on MWT, LS Mean Difference vs placebo: 16.91 min
  Stage N1 Duration (MWT), LS Mean: 1.15 min
  Stage N1 Duration (MWT), LS Mean Difference vs placebo: 0.00 min
  Stage N2 Duration (MWT), LS Mean: 0.89 min
  Stage N2 Duration (MWT), LS Mean Difference vs placebo: -0.21 min
  Total Microsleeps (MWT), LS Mean: 2.22
  Total Microsleeps (MWT), LS Mean Difference vs placebo: 0.92
[1]; average overall
  Duration Total Microsleeps (MWT), LS Mean: 9.00 s
  Duration Total Microsleeps (MWT), LS Mean Difference vs placebo: -0.08 s
  Latency to Sleep Onset on MWT, LS Mean: 30.87 min and 30.87 (1.888) min
  Latency to Sleep Onset on MWT, LS Mean Difference vs placebo: 22.26 min and 22.3 min and 22.62 min and 22.26 (2.634) min
  Stage N1 Duration (MWT), LS Mean: 0.79 min
  Stage N1 Duration (MWT), LS Mean Difference vs placebo: -0.49 min
  Stage N2 Duration (MWT), LS Mean: 0.41 min
  Stage N2 Duration (MWT), LS Mean Difference vs placebo: -0.49 min
  Total Microsleeps (MWT), LS Mean: 1.60
  Total Microsleeps (MWT), LS Mean Difference vs placebo: −0.08
[1]; [4]
  Latency to Sleep Onset on MWT, LS Mean (SE): 21.42 (2.168)
  Latency to Sleep Onset on MWT, LS Mean Difference vs placebo, Estimate (SE): 16 minutes and 16.77 (2.692) minutes
[2]
  Drug-related TEAE of liver function test increased, number of subjects: 1 subject
